{
  "source": "paper PMC12479633",
  "about": "“A Phase IIa, Single-Blind, Placebo-Controlled, Parallel-Group Study to Assess Safety, Tolerability, and Pharmacokinetics/Pharmacodynamics of Brensocatib in Adults with Cystic Fibrosis” (Clinical Pharmacokinetics, 2025)",
  "test": "Plasma pharmacokinetics of brensocatib in adults with CF, once-daily oral dosing for 28 days (noncompartmental analysis)",
  "type": "in vivo, human",
  "conditions": "for Ctrough / CL/F / Cmax / Rac(AUC0–24), accumulation ratio based on AUC0–24 / Rac(Cmax), accumulation ratio based on Cmax / AUC(0-t): mean (CV%); for least squares geometric mean ratio (LSGMR) in AUC0–24 (90% CI) / least squares geometric mean ratio (LSGMR) in Cmax (90% CI): day 28; for AUC0–24 / D, geometric mean / AUClast / D, geometric mean / Cmax / D, geometric mean: dose-normalized",
  "experimental": "This was a phase IIa, single-blind, randomized, placebo-controlled trial with a parallel-group, multiple-dose design aimed at evaluating the PK, PD, safety, and tolerability of brensocatib in adults with CF (NCT05090904).\nParticipants were assigned to receive a once-daily dose of brensocatib (10 mg, 25 mg, or 40 mg) or placebo for 28 days.\nPlasma PK samples were collected on days 1 (at predose and 0.5, 1, 2, 4, 6, 8, and 24 h postdose), 14 (at predose and 2 h postdose), and 28 (at predose and 0.5, 1, 2, 4, 6, 8, 24, and 168 h postdose). The concentration of brensocatib in the plasma samples was analyzed using a validated liquid chromatography with tandem mass spectrometry method at an external service provider with a quantification range of 0.25–150 ng/mL. The overall intra- and inter-batch precision and accuracy were −2.7 to 2.0% and −1.8 to 0.8%, respectively. The long-term stability was established in human plasma for 346 days at −70 °C. The validation method details were published internally and stored within Insmed’s internal document repository.\nDescriptive statistics for continuous variables were calculated. Categorical variables were summarized by counts and by percentage of participants in the corresponding categories. No formal hypothesis was tested. Changes from baseline values were calculated and presented for both safety and efficacy data at each visit, including the percent change from baseline. PK parameters for brensocatib were assessed using noncompartmental analysis via Phoenix® WinNonlin® version 8.2 or later. SAS version 9.4 or higher was employed to prepare PK outputs.\nAnalysis of dose dependency for brensocatib Cmax, AUC0–24, and area under the concentration–time curve from time 0 to last measurable concentration (AUClast) after single-dose administration and at steady state (day 28) were performed using a power law model. Dose normalization of Cmax, AUC0–24, and AUClast was performed only when a linear and dose-dependent trend was observed.",
  "key": {"[1]": {"conditions": "Day 1, with CFTR modulator, n 17"}, "[2]": {"conditions": "Day 1, without CFTR modulator, n 7"}, "[3]": {"conditions": "Day 28, with CFTR modulator, n 16"}, "[4]": {"conditions": "Day 28, without CFTR modulator, n 6"}},
  "note": "Read-outs that look alike come from different tables or passages of the source. Marks after values point to notes of the source that are not given here.",
  "data": [
    {"smiles": "Cn1c(=O)oc2ccc(-c3ccc(C[C@@H](C#N)NC(=O)[C@@H]4CNCCCO4)cc3)cc21", "note": "[Brensocatib]", "values": [
      {"measurement": "Ctrough", "setting": "10 mg QD, Day 1 column, presented for day 2, n = 8", "value": "46.3 (92.2) ng/mL"},
      {"measurement": "CL/F", "setting": "10 mg QD, Day 28, n = 8", "value": "9.91 (28.6) L/h"},
      {"measurement": "Cmax", "setting": "10 mg QD, Day 28, n = 8", "value": "90.1 (31.0) ng/mL"},
      {"measurement": "Ctrough", "setting": "10 mg QD, Day 28, n = 8", "value": "27.2 (66.1) ng/mL"},
      {"measurement": "Rac(AUC0–24), accumulation ratio based on AUC0–24", "setting": "10 mg QD, Day 28, n = 8", "value": "1.38 (32.2)"},
      {"measurement": "Rac(Cmax), accumulation ratio based on Cmax", "setting": "10 mg QD, Day 28, n = 8", "value": "1.42 (22.6)"},
      {"measurement": "Cmax", "setting": "25 mg QD, Day 1, n = 8", "value": "140 (24.1) ng/mL"},
      {"measurement": "Ctrough", "setting": "25 mg QD, Day 1 column, presented for day 2, n = 8", "value": "39.3 (30.4) ng/mL"},
      {"measurement": "CL/F", "setting": "25 mg QD, Day 28, n = 7", "value": "7.17 (30.1) L/h"},
      {"measurement": "Rac(AUC0–24), accumulation ratio based on AUC0–24", "setting": "25 mg QD, Day 28, n = 7", "value": "2.26 (29.2)"},
      {"measurement": "Rac(Cmax), accumulation ratio based on Cmax", "setting": "25 mg QD, Day 28, n = 7", "value": "1.72 (38.9)"},
      {"measurement": "Ctrough", "setting": "25 mg QD, Day 28, n = 8", "value": "104 (43.6)^d ng/mL"},
      {"measurement": "Ctrough", "setting": "40 mg QD, Day 1 column, presented for day 2, n = 8", "value": "108 (88.6) ng/mL"},
      {"measurement": "CL/F", "setting": "40 mg QD, Day 28, n = 8", "value": "7.20 (42.8) L/h"},
      {"measurement": "Ctrough", "setting": "40 mg QD, Day 28, n = 8", "value": "162 (41.8) ng/mL"},
      {"measurement": "Rac(AUC0–24), accumulation ratio based on AUC0–24", "setting": "40 mg QD, Day 28, n = 8", "value": "1.81 (37.4)"},
      {"measurement": "Rac(Cmax), accumulation ratio based on Cmax", "setting": "40 mg QD, Day 28, n = 8", "value": "1.43 (25.5)"},
      {"measurement": "least squares geometric mean ratio (LSGMR) in AUC0–24 (90% CI)", "setting": "40-mg dose compared to 10 mg", "value": "1.42 (1.04–1.92)"},
      {"measurement": "least squares geometric mean ratio (LSGMR) in Cmax (90% CI)", "setting": "40-mg dose compared to 10 mg", "value": "1.36 (1.02–1.82)"},
      {"measurement": "least squares geometric mean ratio (LSGMR) in AUC0–24 (90% CI)", "setting": "40-mg dose compared to 25 mg", "value": "1.02 (0.74–1.41)"},
      {"measurement": "least squares geometric mean ratio (LSGMR) in Cmax (90% CI)", "setting": "40-mg dose compared to 25 mg", "value": "1.25 (0.92–1.69)"},
      {"measurement": "AUClast / D, ratio with/without CFTR modulator (90% CI)", "setting": "Day 1, geometric mean ratio", "value": "1.21 (0.91–1.60)"},
      {"measurement": "AUC0–24 / D, geometric mean", "setting": "[1]", "value": 80.7, "unit": "ng·h/mL/mg"},
      {"measurement": "AUClast / D, geometric mean", "setting": "[1]", "value": 80.7, "unit": "ng·h/mL/mg"},
      {"measurement": "Cmax / D, geometric mean", "setting": "[1]", "value": 6.7, "unit": "ng/mL/mg"},
      {"measurement": "AUC0–24 / D, geometric mean", "setting": "[2]", "value": 66.8, "unit": "ng·h/mL/mg"},
      {"measurement": "AUClast / D, geometric mean", "setting": "[2]", "value": 66.8, "unit": "ng·h/mL/mg"},
      {"measurement": "Cmax / D, geometric mean", "setting": "[2]", "value": 6.3, "unit": "ng/mL/mg"},
      {"measurement": "AUC0–24 / D, ratio with/without CFTR modulator (90% CI)", "setting": "Day 28, geometric mean ratio", "value": "1.12 (0.82–1.52)"},
      {"measurement": "AUC0–24 / D, geometric mean", "setting": "[3]", "value": 134.2, "unit": "ng·h/mL/mg"},
      {"measurement": "AUClast / D, geometric mean", "setting": "[3]", "value": 295.1, "unit": "ng·h/mL/mg"},
      {"measurement": "Cmax / D, geometric mean", "setting": "Day 28, with CFTR modulator, n = 17", "value": "10.2^a ng/mL/mg"},
      {"measurement": "AUC0–24 / D, geometric mean", "setting": "[4]", "value": 120.2, "unit": "ng·h/mL/mg"},
      {"measurement": "AUClast / D, geometric mean", "setting": "[4]", "value": 271.3, "unit": "ng·h/mL/mg"},
      {"measurement": "Cmax / D, geometric mean", "setting": "[4]", "value": 8.8, "unit": "ng/mL/mg"},
      {"measurement": "inter-participant variability (coefficient of variation) in Cmax, AUC0–24 and t1/2", "setting": "generally within", "value": "15–50%"},
      {"measurement": "AUC(0-t)", "setting": "human, plasma, oral, 10 mg, 10 mg QD, Day 1, n = 8, read-out: AUC0–24", "value": 879, "unit": "ng·h/mL"},
      {"measurement": "AUC(0-t)", "setting": "human, plasma, oral, 10 mg, 10 mg QD, Day 1, n = 8, read-out: AUClast", "value": 879, "unit": "ng·h/mL"},
      {"measurement": "Cmax", "setting": "human, plasma, oral, 10 mg, 10 mg QD, Day 1, n = 8, with/without CFTR modulators, read-out: Cmax", "value": 67.3, "unit": "ng/mL"},
      {"measurement": "AUC(0-t)", "setting": "human, plasma, oral, 10 mg, 10 mg QD, Day 28, n = 8, read-out: AUC0–24", "value": 1100, "unit": "ng·h/mL"},
      {"measurement": "AUC(0-t)", "setting": "human, plasma, oral, 10 mg, 10 mg QD, Day 28, n = 8, read-out: AUClast", "value": 2380, "unit": "ng·h/mL"},
      {"measurement": "AUC(0-t)", "setting": "human, plasma, oral, 25 mg, 25 mg QD, Day 1, n = 8, read-out: AUC0–24", "value": 1630, "unit": "ng·h/mL"},
      {"measurement": "AUC(0-t)", "setting": "human, plasma, oral, 25 mg, 25 mg QD, Day 1, n = 8, read-out: AUClast", "value": 1630, "unit": "ng·h/mL"},
      {"measurement": "AUC(0-t)", "setting": "human, plasma, oral, 25 mg, 25 mg QD, Day 28, n = 7, read-out: AUC0–24", "value": 3800, "unit": "ng·h/mL"}
    ]}
  ]
}
